# Experimental data taken from patent publication US8409602B2, “Sealants for fetal membrane repair” (Northwestern University, priority 2009, dated 2013).
# What was measured:
# epididymal fat pad = assay: Material-only implantation at the murine epididymal fat pad; design: species or system C57BL6 mice; settings: mouse, in vivo
# Procedure: Material-only implantation. Healthy, age-matched male C57BL6 mice (Jackson Laboratories, Bar Harbor, Me.) were anesthetized with nebulized isoflurane (IsoThesia; Butler/Abbott Laboratories, North Chicago, Ill.) and intraperitoneal injection of 2% Avertin (2,2,2-tribromoethanol, Sigma) at 0.3 mg/g body weight, prior to shaving of the abdomen and sterile preparation of the surgical site. The left epididymal fat pad was exposed through midline lower abdominal incision and manipulation of the tissue flap. This thin, well-vascularized tissue is analogous to the omentum of larger mammals and has dimensions on the order of 1.5—1.5 cm. Sterile, two-component mixing and adhesive delivery was achieved by a dual-barrel blending connector with mixer device (Micromedics, St Paul, Minn.) containing sterile-filtered 300 mg/mL cPEG and 0.056 M sodium periodate, respectively.
# Following topical delivery of approximately […] adhesive, the deposition site was left undisturbed for 1 min. The sample site was then manually reinserted into the lower abdominal cavity and the incision closed with double-layer suture. Mice were monitored postoperatively until conscious recovery. At three days, two weeks, six weeks, and one-year post-implant, the adhesive and associated adipose tissue was surgically removed from anesthetized mice, prior to euthanasia. […]
# fetal membranes [1] = assay: Direct contact-induced apoptosis (TUNEL) in fetal membranes; format: cell-based
# Procedure: Toxicity tests. Toxicity of sealants for fetal membrane cells was evaluated using direct contact and elution tests, as per International Organization for Standardization (ISO) 10993-5 guidelines.
# Direct contact cytotoxicity. […] 4.5 software (Carl Zeiss).
# fetal membranes [2] = tested on: fetal membranes
# Procedure: Direct contact cytotoxicity. Direct contact studies were performed with term fetal membranes obtained from three cases. The amniotic layer was chosen for sealant application (FIG. 1A) because this layer was proposed to be the strength-bearing layer of fetal membranes and major determinant for PPROM.^31 2×1 cm patches of freshly harvested fetal membranes were placed into wells of 6-well plates with amnion layer up. […] Membranes covered with sealant were covered with 3 mL culture medium (Ham's F-12/DMEM supplemented with 10% FBS, 100 U/ml penicillin, and 100 μg/ml streptomycin) and cultured for 24 h at 37° C. […] Deparaffinized sections were either stained with hematoxylin-eosin (H/E), or stained for apoptotic cells using TUNEL technology (Terminal deoxynucleotidyl transferase dUTP nick end labeling; In Situ Cell Death Detection Kit, Fluorescein (Roche Diagnostics GmbH, Mannheim, Germany). For total cell counts, all cell nuclei were counterstained with 4′,6-diamidin-2′-phenylindol-dihydrochlorid (DAPI; Sigma, Buchs, Switzerland). The histologic images were taken with a Zeiss Axiovert 200M fluorescent microscope (Carl Zeiss, Goettingen, Germany) equipped with an Zeiss AxioCam MRc digital camera and analysed with AxioVision Rel. […] One tissue section per case was analysed, taking four optical fields per section for analysis.
substance,measurement,setting,value
four-armed catechol-terminated polyethylene glycol (cPEG) [cPEG adhesive],immediate local reaction at deposition site,epididymal fat pad,no immediate visible inflammation or redness
same,non-specific postsurgical adhesions,epididymal fat pad,no evidence of non-specific postsurgical adhesions
same,apoptosis compared with control,fetal membranes [1],did not enhance apoptosis over control
same,effect on membrane morphology,fetal membranes [2],normal membrane morphology appeared maintained
